In US10690661B2, “Yeast-based biosensor” (priority 2014, dated 2020):
“Also recorded” adds a separate entry of the source.

Legend:
[1] = target: Mutant receptors derived from RecCys1 mutagenesis; assay: Dose response of mutant receptors evolved for cystatin chimera Cys2; format: cell-based, Saccharomyces cerevisiae; conditions: FIG. 9b
Excerpt: (§1) Receptor activation was coupled to green fluorescent protein (GFP) expression by cloning GFP downstream of the Ste2p-activated FUS1 promoter. Therefore a receptor mutant that is successfully activated by the POI will result in the cell fluorescing green. The discriminating power of the screen is improved by including an internal control, constitutive expression of mKate (a red fluorescent protein). Red fluorescence corresponds to cell size, and allows us to normalize the GFP measurement for more accurate sorting. […] The initial HTS has false positive (FP) rates of 20% and false negative (FN) rates of 10%. The FP and FN rate is overcome by doing multiple rounds of enrichment. In four rounds of enrichment, a population of cells is isolated that originally was 1 in 10^6.
(§2) Initial attempts to evolve directly for the cystatin/GSS peptides were unsuccessful. To take smaller evolutionary steps, chimera peptides were designed that were more similar to α-factor. Receptors were evolved to recognize peptide that contain several changes in the peptide sequence (FIG. 9a-c).
Receptors have been successfully evolved for some chimeras. Two steps have been completed for cystatin (evolving for Cys1 and then using that receptor as a parent to evolve for Cys2) and one step for GSS.

[2] = system: evolved cystatin receptor; format: cell-based, Saccharomyces cerevisiae
[3] = target: Mutant receptors (RecCys1); assay: Dose response of mutant receptors evolved for cystatin chimera Cys1; format: cell-based, Saccharomyces cerevisiae; conditions: FIG. 9a
Excerpt: as §1, §2

[4] = system: Mutant receptor RecGssB; assay: Dose response of mutant receptors evolved for GSS chimera GssB; format: cell-based, Saccharomyces cerevisiae
Excerpt: as §1, §2

[5] = target: T1, native Ste2 receptor (Saccharomyces cerevisiae, UniProt D6VTK4, A176T/D201G/D370N/S34T); conditions: physiological concentrations; previous literature; cited from earlier work
T1 construct: contains yeast Sterile2 (Ste2) receptor between the constitutive GPD promoter and the CYC1 terminator; expressed in transfected cells; host or cells: S. cerevisiae MPY578t5 derivatives (native STE2 removed), plasmid pJB036
T1 sequence (D6VTK4 whole entry S34T/A176T/D201G/D370N): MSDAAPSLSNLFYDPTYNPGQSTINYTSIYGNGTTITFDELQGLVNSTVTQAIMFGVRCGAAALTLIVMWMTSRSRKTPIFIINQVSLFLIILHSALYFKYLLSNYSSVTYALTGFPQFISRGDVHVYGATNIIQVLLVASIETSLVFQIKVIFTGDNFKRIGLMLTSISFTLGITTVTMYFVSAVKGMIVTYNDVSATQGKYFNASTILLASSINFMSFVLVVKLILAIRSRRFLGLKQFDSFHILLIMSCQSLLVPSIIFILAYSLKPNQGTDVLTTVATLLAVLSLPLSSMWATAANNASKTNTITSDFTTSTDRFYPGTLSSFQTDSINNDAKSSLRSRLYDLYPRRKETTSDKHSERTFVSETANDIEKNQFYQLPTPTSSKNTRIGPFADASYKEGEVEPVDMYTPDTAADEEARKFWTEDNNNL

[6] = system: mutant Ste2 receptors isolated for Variant 56; assay: GFP/RFP reporter dose response, mutants isolated for sensitivity to ligand Variant 56
[7] = target: Mutant 44.1 (mutant Ste2 receptor); assay: GFP/RFP reporter dose response, isolated mutant receptor Mutant 44.1; conditions: alpha factor on Mutant 44.1, compared with native Ste2; FIG. 3B
[8] = system: evolved receptors (from Ste2p); assay: Sensitivity enhancement dose response of evolved receptors; format: cell-based, Saccharomyces cerevisiae; conditions: FIG. 11
[9] = target: Mutant 56.5 (mutant Ste2 receptor); assay: GFP/RFP reporter dose response, isolated mutant receptor Mutant 56.5; conditions: alpha factor on Mutant 56.5, compared with native Ste2; FIG. 4B
[10] = system: re-mutagenized mutant Ste2 receptor library; assay: Screen of library made by re-mutagenizing a Variant 56-sensitive mutant receptor; format: cell-based, Saccharomyces cerevisiae; conditions: FIG. 7a
Excerpt: Specificity can be increased with iterative selection and counter-selection (FIG. 7b). […] Round 2 library mutants were also screened for lack of activity for α-factor, confirming the evolution of receptors for specificity against α-factor (FIG. 7c).

[11] = target: T1, native Ste2 receptor; assay: GFP/RFP reporter dose response in yeast expressing the native Ste2 receptor; format: cell-based; conditions: compared to the native ligand

ALALKPGEPMY [Cys2]
EC50 relative to RecSte2p [1]: lower

ALDFAVGEYNK (listed as Cystatin chimera) [Cys5]
response of evolved cystatin receptor ([2]; FIG. 13B): rises in response
response of receptor mutants evolved from Ste2p (dose response curve) ([2]; FIG. 14A-C): respond

HALALKPGEPMY [Cys1]
EC50 relative to RecSte2p [3]: lower

LRLLALKPGQPLYGR [Gss1]
effect of GssB-enhancing receptor mutations on response ([4]; receptors carrying mutations that enhance the response to GssB): enhance response

WAWLQLKPGQPMY
response of Ste2 to the ligand [5]: very low response, if any

WHWLQLKPGEPLYGR [GssB]
EC50 relative to RecSte2p ([4]; FIG. 9c): lower

WHWLQLKPGQPMY [α-factor]
activity of isolated mutants for the native pheromone ([6]; FIG. 4B): maintained some activity
EC50 relative to Ste2 [7]: significantly higher
response of evolved receptor to the native ligand ([4]; FIG. 9d): do not respond; also recorded: no longer responds
concentration at which evolved receptors respond, relative to wild type/Ste2p receptor [8]: concentrations lower than the wild type
EC50 relative to Ste2 [9]: significantly higher

WHYLQLKPGQPMY [Variant 56]
EC50 relative to Ste2 ([6]; all five isolated mutants, FIG. 4A, FIG. 5): significantly lower
activity of new library after second round of mutagenesis [10]: increased activity
response of Ste2 to the ligand [5]: very low response, if any
activity of the native Ste2 receptor for the ligand [11]: little activity
